Legend:
[1] = target: T1, SGK1 (Homo sapiens, UniProt O00141); assay: SGK1 inhibition Assay B (Echo mass spectrometry of phosphorylated peptide product); format: biochemical; conditions: 60 min at room temperature
T1 sequence (O00141 1-431): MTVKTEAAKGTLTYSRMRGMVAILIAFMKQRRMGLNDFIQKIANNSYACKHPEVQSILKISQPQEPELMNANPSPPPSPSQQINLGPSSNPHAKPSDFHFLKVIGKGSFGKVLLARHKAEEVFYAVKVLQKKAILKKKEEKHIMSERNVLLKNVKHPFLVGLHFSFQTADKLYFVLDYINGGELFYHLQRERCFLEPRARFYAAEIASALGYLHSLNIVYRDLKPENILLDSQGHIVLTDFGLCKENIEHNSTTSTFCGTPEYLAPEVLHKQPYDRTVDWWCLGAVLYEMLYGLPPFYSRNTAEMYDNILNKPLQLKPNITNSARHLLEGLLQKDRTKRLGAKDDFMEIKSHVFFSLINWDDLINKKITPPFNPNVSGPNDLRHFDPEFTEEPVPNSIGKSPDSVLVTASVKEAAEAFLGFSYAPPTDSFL

[2] = target: T2, full length SGK1 (Homo sapiens, UniProt O00141); assay: SGK1 inhibition Assay A (Caliper LabChip electrophoretic separation of fluorescent peptide substrate and phosphorylated product); format: biochemical; conditions: Assay A; 20 μM ATP, 40 min incubation; read-out: SGK1 IC50
T2 construct: 125 μM full length SGK1 (Life Technologies Part #PR7358A); purchased Life Technologies PR7358A
T2 sequence (O00141 1-431): T1 sequence (O00141 1-431)

Row | IC50 [1] [nM] | IC50 [2] [nM] | SMILES
1 | 0.8 | – | CC[C@H](CO)NC1CCC(Oc2nc(C)sc2C(=O)N[C@@H]2CCCN(c3cc(-c4csc(C(=O)NC)n4)n4ncnc(N)c34)C2)CC1 (stereo partly drawn) [Example 1053, 4-(4-amino-5-((R)-3-(4-((4-(((R)-1-hydroxybutan-2-yl)amino)cyclohexyl)oxy)-2-methylthiazole-5-carboxamido)piperidin-1-yl)pyrrolo[2,1-f][1,2,4]triazin-7-yl)-N-methylthiazole-2-carboxamide]
2 | 0.8 | – | CCC1=C(c2cc(N3CCC[C@@H](NC(=O)c4sc(C)nc4OC4CCC(N[C@@H](C)COC)CC4)C3)c3c(N)ncnn23)COC1=O (single isomer, unassigned) [Example 1023]
3 | 13 | – | CNC(=O)c1ccc(-c2cc(N3CCC[C@@H](NC(=O)c4sc(Cl)cc4OCCN(C)C)C3)c3c(N)ncnn23)cn1 [Example 835, (R)-5-(4-amino-5-(3-(5-chloro-3-(2-(dimethylamino)ethoxy)thiophene-2-carboxamido)piperidin-1-yl)pyrrolo[2,1-f][1,2,4]triazin-7-yl)-N-methylpicolinamide]
4 | 2 | – | Cc1nc(OC2CC3CCC2CN3CCO)c(C(=O)N[C@@H]2CCCN(c3cc(-c4cnc(C#N)c(F)c4)n4ncnc(N)c34)C2)s1 (single isomer, unassigned) [Example 993]
5 | 3 | – | CC(=O)N1CC=C(c2cc(N3CCC[C@@H](NC(=O)c4sc(Cl)cc4OCC45CCCN4CCC5)C3)c3c(N)ncnn23)C1 [Example 917, N-[(3R)-1-[7-(1-acetyl-2,5-dihydro-1H-pyrrol-3-yl)-4-aminopyrrolo[2,1-f][1,2,4]triazin-5-yl]piperidin-3-yl]-5-chloro-3-[(hexahydro-1H-pyrrolizin-7a-yl)methoxy]thiophene-2-carboxamide]
6 | 0.6 | – | CC(=O)N1CC=C(c2cc(N3CCC[C@@H](NC(=O)c4nc(OC5CCNCC5)c(C)s4)C3)c3c(N)ncnn23)C1 [Example 957, (R)—N-(1-(7-(1-acetyl-2,5-dihydro-1H-pyrrol-3-yl)-4-aminopyrrolo[2,1-f][1,2,4]triazin-5-yl)piperidin-3-yl)-5-methyl-4-(piperidin-4-yloxy)thiazole-2-carboxamide]
7 | 3 | 6 | Nc1ncnn2c(-c3ccnc(C(F)F)c3)cc(N3CCC[C@@H](NC(=O)c4ccc(C(F)F)s4)C3)c12 [Example 482, (R)-N-(1-(4-amino-7-(2-(difluoromethyl)pyridin-4-yl)pyrrolo[2,1-f][1,2,4]triazin-5-yl)piperidin-3-yl)-5-(difluoromethyl)thiophene-2-carboxamide]
8 | 1.2 | – | [2H]C([2H])([2H])N(C1CCC(Oc2nc(C)sc2C(=O)N[C@@H]2CCCN(c3cc(-c4ccnc(OC)n4)n4ncnc(N)c34)C2)CC1)C([2H])([2H])[2H] (stereo partly drawn) [Example 1032, (R)—N-(1-(4-amino-7-(2-methoxypyrimidin-4-yl)pyrrolo[2,1-f][1,2,4]triazin-5-yl)piperidin-3-yl)-4-((4-(bis(methyl-d3)amino)cyclohexyl)oxy)-2-methylthiazole-5-carboxamide]

From US20260250290A1 (BRISTOL-MYERS SQUIBB COMPANY, priority 2023, published 2026)
